For 17 molecules, IC50 results are on record in BindingDB's records for doi:10.1016/0968-0896(96)00075-2 (Sapienza University of Rome, 1996).

In general, IC50 refers to the midpoint of a concentration-inhibition curve.

The experiment concerns the target T1, Gag-Pol polyprotein [588-1027]/[588-1147] (Human immunodeficiency virus 1, UniProt P04585).
T1 construct: 588-1027; 588-1147
In words: HIV-1 RT Assay. The conditions noted are these: pH 7.8; 37 °C.

`C=CCN1C(=O)c2cccn2S(=O)(=O)c2cc(Cl)ccc21` [13-chloro-9-(prop-2-en-1-yl)-2-thia-3,9-diazatricyclo[8.4.0.0^{3,7}]tetradeca-1(10),4,6,11,13-pentaene-2,2,8-trione] came in with an IC50 of 2.9 µM. This counts as single-digit micromolar.
Molecule `CCOC(=O)CN1C(=O)c2cccn2S(=O)(=O)c2ccccc21` [ethyl 2-(2,2,8-trioxo-2-thia-3,9-diazatricyclo[8.4.0.0^{3,7}]tetradeca-1(10),4,6,11,13-pentaen-9-yl)acetate] yielded an IC50 of 31 µM.
The molecule `CN1C(=O)c2cccn2S(=O)(=O)c2cc(Cl)ccc21` [13-chloro-9-methyl-2-thia-3,9-diazatricyclo[8.4.0.0^{3,7}]tetradeca-1(10),4,6,11,13-pentaene-2,2,8-trione] gave an IC50 of 0.5 µM.
Under `C/C=C/CN1C(=O)c2cccn2S(=O)(=O)c2ccccc21` [9-[(2E)-but-2-en-1-yl]-2-thia-3,9-diazatricyclo[8.4.0.0^{3,7}]tetradeca-1(10),4,6,11,13-pentaene-2,2,8-trione] stands 21 µM; under `CCN1C(=O)c2cccn2S(=O)(=O)c2ccccc21` [9-ethyl-2-thia-3,9-diazatricyclo[8.4.0.0^{3,7}]tetradeca-1(10),4,6,11,13-pentaene-2,2,8-trione], 10 µM.
Consider `O=C1Nc2ccccc2Sn2cccc21` [5H-Pyrrolo [1,2-b] [1,2,5] benzothiadiazepin-11 (10H) -one], for which the IC50 was above 100 µM.
As for `C=CCN1C(=O)c2cccn2S(=O)(=O)c2ccccc21` [9-(prop-2-en-1-yl)-2-thia-3,9-diazatricyclo[8.4.0.0^{3,7}]tetradeca-1(10),4,6,11,13-pentaene-2,2,8-trione], 9.5 µM corresponded to half-maximal inhibition (IC50).
The molecule `Cn1c2ccccc2n2c(c3cccn31)=C(O)N(CCN1CCOCC1)CC2=O` [7-methyl-17-[2-(morpholin-4-yl)ethyl]-6,7,14,17-tetraazatetracyclo[12.4.0.0^{2,6}.0^{8,13}]octadeca-2,4,8(13),9,11-pentaene-15,18-dione] showed an IC50 of 6.3 µM.
With `CN1C(=O)c2cccn2S(=O)(=O)c2ccccc21` [10-methyi-5H-pyrrolo1,2-b] [1,2,5] benzothiadiazepin-11(10H)-one-5,5-dioxide], the IC50 worked out at 11 µM.
With `CCCN1C(=O)c2cccn2S(=O)(=O)c2ccccc21` [9-propyl-2-thia-3,9-diazatricyclo[8.4.0.0^{3,7}]tetradeca-1(10),4,6,11,13-pentaene-2,2,8-trione], it took 24 µM to reach half-maximal inhibition (IC50).
As for `C/C=C\CN1C(=O)c2cccn2S(=O)(=O)c2cc(Cl)ccc21` [9-[(2Z)-but-2-en-1-yl]-13-chloro-2-thia-3,9-diazatricyclo[8.4.0.0^{3,7}]tetradeca-1(10),4,6,11,13-pentaene-2,2,8-trione], the IC50 is 3.1 µM.
`CN(C)CCCN1CC(=O)n2c(c3cccn3n(C)c3ccccc32)=C1O` [17-[3-(dimethylamino)propyl]-7-methyl-6,7,14,17-tetraazatetracyclo[12.4.0.0^{2,6}.0^{8,13}]octadeca-2,4,8(13),9,11-pentaene-15,18-dione]: the IC50 stood at 24 µM.
Molecule `CC(C)N1C(=O)c2cccn2S(=O)(=O)c2ccccc21` [9-(propan-2-yl)-2-thia-3,9-diazatricyclo[8.4.0.0^{3,7}]tetradeca-1(10),4,6,11,13-pentaene-2,2,8-trione] yielded a concentration for half-maximal inhibition (IC50) of 6.3 µM.
Take `CCN1C(=O)c2cccn2S(=O)(=O)c2cc(Cl)ccc21` [13-chloro-9-ethyl-2-thia-3,9-diazatricyclo[8.4.0.0^{3,7}]tetradeca-1(10),4,6,11,13-pentaene-2,2,8-trione]: the IC50 came out at 2.7 µM.
As for `O=C1Nc2ccccc2S(=O)(=O)n2cccc21` [2-thia-3,9-diazatricyclo[8.4.0.0^{3,7}]tetradeca-1(10),4,6,11,13-pentaene-2,2,8-trione], 4 µM corresponded to half-maximal inhibition (IC50).
Under `Cn1c2ccccc2n2c(c3cccn31)=C(O)N(CCN1CCCCC1)CC2=O` [7-methyl-17-[2-(piperidin-1-yl)ethyl]-6,7,14,17-tetraazatetracyclo[12.4.0.0^{2,6}.0^{8,13}]octadeca-2,4,8(13),9,11-pentaene-15,18-dione] stands above 100 µM.
For `O=C1Nc2ccc(Cl)cc2S(=O)(=O)n2cccc21` [13-chloro-2-thia-3,9-diazatricyclo[8.4.0.0^{3,7}]tetradeca-1(10),4,6,11,13-pentaene-2,2,8-trione], the IC50 came out at 0.7 µM.
